Experimental data as given in patent US20250186452A1, “NOVEL USE OF QUINOLINE COMPOUND” (TARAPEUTICS SCIENCE INC., priority 2022, published 2025).
Like-named read-outs stand apart in the source and are kept apart here.

How the values were obtained:
M-NSF-60 = experiment: Proliferation of M-NSF-60 cells with M-CSF (CCK-8, 72 hours); format: cell-based, mouse; conditions: for GI50: Mus musculus, read-out: M-NSF-60 (GI50/μM)
Procedure: (§1) The incubated cells were detected by CCK-8 (purchased from MedChem Express, China) cell viability detection kit (CCK-8 can be reduced by dehydrogenases in living cells to a highly water-soluble yellow formazan product, and the amount of the generated formazan product is proportional to the number of living cells). The number of living cells was quantified by a microplate reader, and the GI50 for each compound was calculated (the results are shown in Table 2).

TEL-CSF1R-BaF3 = target: T1, TEL-CSF1R-BaF3 (Homo sapiens, UniProt P07333); experiment: Proliferation of TEL-CSF1R-BaF3 cells (CCK-8, 72 hours); format: cell-based; conditions: for GI50: 72 hours incubation, CCK-8
T1 construct: expressed in transfected cells; host or cells: mouse BaF3 cells (ATCC), retroviral transduction with MSCV-Puro vector, IL-3 withdrawn; the other entry of the earlier key: ETV6 (P41212, Transcription factor ETV6)
T1 sequence (P07333 582-910 limits assumed): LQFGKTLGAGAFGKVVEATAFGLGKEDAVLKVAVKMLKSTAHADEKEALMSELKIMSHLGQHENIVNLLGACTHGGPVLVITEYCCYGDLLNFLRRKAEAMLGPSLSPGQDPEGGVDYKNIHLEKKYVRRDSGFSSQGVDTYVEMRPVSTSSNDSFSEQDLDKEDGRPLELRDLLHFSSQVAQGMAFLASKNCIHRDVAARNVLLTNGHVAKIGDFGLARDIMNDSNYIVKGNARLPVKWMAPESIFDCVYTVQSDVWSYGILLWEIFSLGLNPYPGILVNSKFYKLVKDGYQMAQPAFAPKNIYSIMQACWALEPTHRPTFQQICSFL
Procedure: as §1
The construction method of the TEL-CSF1R-BaF3 cell line (a cell line stably expressing CSF1R kinase) was as follows: the sequence of human CSF1R kinase region was amplified by PCR and inserted into the MSCV-Puro vector (Clontech) with an N-terminal TEL fragment, and stably transferred into mouse BaF3 cells (purchased from ATCC, USA) by a retroviral method, and IL-3 growth factor was removed, finally a cell line dependent on CSF1R transferred protein was obtained.

[1] = M-CSF 50 ng/ml in medium, 72 hours incubation, CCK-8
[2] = result in words, summary of Table 2

SMILES | GI50 (M-NSF-60; 72 h) [µM] | GI50 (TEL-CSF1R-BaF3) [µM] | GI50 (M-NSF-60; [1]) [µM] | inhibitory effect on the proliferation of M-NSF-60 (M-NSF-60; [2]) | inhibitory effect on the proliferation of TEL-CSF1R-BaF3 (TEL-CSF1R-BaF3; [2])
COc1cc2nccc(Oc3ccc(NC(=O)Cc4ccccc4)cn3)c2cc1OC [Comparative Example 1, N-(6-((6,7-dimethoxyquinolin-4-yl)oxy)pyridin-3-yl)-2-phenylacetamide, reference compound] | > 10 | > 10 |  |  | 
COc1cc2nccc(Oc3ncc(NC(=O)Cc4cccc(C(F)(F)F)c4)cc3Cl)c2cc1OC [Comparative Example 2, N-(5-chloro-6-((6,7-dimethoxyquinolin-4-yl)oxy)pyridin-3-yl)-2-(3-(trifluoromethyl)phenyl)acetamide, reference compound] |  | 2.54 | 7.84 |  | 
COc1cc2nccc(Oc3ccc(C(=O)NCc4cccc(C(F)(F)F)c4)cc3)c2cc1OC [Comparative Example 3, N-(3-(trifluoromethyl)benzyl)-4-((6,7-dimethoxyquinolin-4-yl)oxy)benzamide, reference compound] |  | 1.23 | 2.4 |  | 
COc1cccc(CC(=O)Nc2ccc(Oc3ncnc4cc(OC)c(OC)cc34)cc2)c1 [Comparative Example 4, N-(4-((6,7-dimethoxyquinazolin-4-yl)oxy)phenyl)-2-(3-methoxyphenyl)acetamide, reference compound] |  | 0.17 | 0.55 | certain inhibitory activity | certain inhibitory activity
COc1cc2nccc(Oc3ccc(NC(=O)Cc4ccc(C)c(C(F)(F)F)c4)cc3)c2cc1OC [Example 1, N-(4-((6,7-dimethoxyquinolin-4-yl)oxy)phenyl)-2-(4-methyl-3-(trifluoromethyl)phenyl)acetamide] | 0.009 | 0.002 |  |  | 
COc1cc2nccc(Oc3ccc(NC(=O)Cc4ccccc4)cc3)c2cc1OC [Example 3, N-(4-((6,7-dimethoxyquinolin-4-yl)oxy)phenyl)-2-phenylacetamide] |  | 0.012 | 0.1 |  | 
COc1cc2nccc(Oc3ccc(NC(=O)Cc4ccc(Cl)c(F)c4)cc3)c2cc1OC [Example 5, N-(4-((6,7-dimethoxyquinolin-4-yl)oxy)phenyl)-2-(4-chloro-3-fluorophenyl)acetamide] |  | 0.001 | 0.035 |  | 
COc1cc2nccc(Oc3ccc(NC(=O)Cc4cccc(C(F)(F)F)c4)c(Cl)c3)c2cc1OC [Example 6, N-(2-chloro-4-((6,7-dimethoxyquinolin-4-yl)oxy)phenyl)-2-(3-(trifluoromethyl)phenyl)acetamide] |  | 0.017 | 0.06 |  | 
COc1cc2nccc(Oc3ccc(NC(=O)Cc4ccc(C(F)(F)F)cc4)c(Cl)c3)c2cc1OC [Example 7, N-(2-chloro-4-((6,7-dimethoxyquinolin-4-yl)oxy)phenyl)-2-(4-(trifluoromethyl)phenyl)acetamide] |  | 0.009 | 0.03 |  | 
COc1cc2nccc(Oc3ccc(NC(=O)Cc4cccc(C(F)(F)F)c4)cc3)c2cc1OC [Example 8, N-(4-((6,7-dimethoxyquinolin-4-yl)oxy)phenyl)-2-(3-(trifluoromethyl)phenyl)acetamide] |  | 0.001 | 0.006 |  | 
COc1cc2nccc(Oc3ccc(NC(=O)Cc4ccc(C(F)(F)F)cc4)cc3)c2cc1OC [Example 9, N-(4-((6,7-dimethoxyquinolin-4-yl)oxy)phenyl)-2-(4-(trifluoromethyl)phenyl)acetamide] |  | 0.002 | 0.007 |  | 
COc1ccc(CC(=O)Nc2ccc(Oc3ccnc4cc(OC)c(OC)cc34)cc2)cc1OC [Example 10, N-(4-((6,7-dimethoxyquinolin-4-yl)oxy)phenyl)-2-(3,4-dimethoxyphenyl)acetamide] |  | 0.009 | 0.038 |  | 
COc1cc2nccc(Oc3ccc(NC(=O)Cc4ccc(C)c(C)c4)cc3)c2cc1OC [Example 11, N-(4-((6.7-dimethoxyquinolin-4-yl)oxy)phenyl)2-(3,4-dimethylphenyl)acetamide] |  | 0.001 | 0.005 |  | 
COc1cc2nccc(Oc3ccc(NC(=O)Cc4ccc(F)c(F)c4)cc3)c2cc1OC [Example 12, N-(4-((6,7-dimethoxyquinolin-4-yl)oxy)phenyl)-2-(3,4-difluorophenyl)acetamide] |  | 0.003 | 0.065 |  | 
COc1cc2nccc(Oc3ccc(NC(=O)Cc4ccc(F)c(C(F)(F)F)c4)cc3)c2cc1OC [Example 13, N-(4-((6,7-dimethoxyquinolin-4-yl)oxy)phenyl)-2-(4-fluoro-3-(trifluoromethyl)phenyl)acetamide] |  | 0.002 | 0.018 |  | 
COc1cc2nccc(Oc3ccc(NC(=O)Cc4c(F)cccc4F)cc3)c2cc1OC [Example 14, N-(4-((6,7-dimethoxyquinolin-4-yl)oxy)phenyl)-2-(2,6-difluorophenyl)acetamide] |  | 0.012 | 0.26 |  | 
COc1cc2nccc(Oc3ccc(NC(=O)Cc4ccc(F)cc4F)cc3)c2cc1OC [Example 15, N-(4-((6,7-dimethoxyquinolin-4-yl)oxy)phenyl)-2-(2,4-difluorophenyl)acetamide] |  | 0.003 | 0.051 |  | 
COc1cc2nccc(Oc3ccc(NC(=O)Cc4ccc(C)c(F)c4)cc3)c2cc1OC [Example 16, N-(4-((6,7-dimethoxyquinolin-4-yl)oxy)phenyl)-2-(3-fluoro-4-methylphenyl)acetamide] |  | 0.001 | 0.033 |  | 
COc1cc2nccc(Oc3ccc(NC(=O)Cc4ccc(Cl)c(Cl)c4)cc3)c2cc1OC [Example 17, N-(4-((6,7-dimethoxyquinolin-4-yl)oxy)phenyl)-2-(3,4-dichlorophenyl)acetamide] |  | 0.002 | 0.042 |  | 
COc1cc2nccc(Oc3ccc(NC(=O)Cc4ccc5c(c4)OCO5)cc3)c2cc1OC [Example 18, N-(4-((6,7-dimethoxyquinolin-4-yl)oxy)phenyl)-2-(benzo[d][1,3]dioxol-5-yl)acetamide] |  | 0.002 | 0.062 |  | 
COc1cc2nccc(Oc3ccc(NC(=O)Cc4ccc5ccccc5c4)cc3)c2cc1OC [Example 19, N-(4-((6,7-dimethoxyquinolin-4-yl)oxy)phenyl)-2-(naphth-2-yl)acetamide] |  | 0.0008 | 0.074 |  | 
COc1cc2nccc(Oc3ccc(NC(=O)Cc4cccc(F)c4)cc3)c2cc1OC [Example 20, N-(4-((6,7-dimethoxyquinolin-4-yl)oxy)phenyl)-2-(3-fluorophenyl)acetamide] |  | 0.006 | 0.13 |  | 
COc1cc2nccc(Oc3ccc(NC(=O)Cc4ccc(Cl)c(C(F)(F)F)c4)c(Cl)c3)c2cc1OC [Example 23, N-(2-chloro-4-((6,7-dimethoxyquinolin-4-yl)oxy)phenyl)-2-(4-chloro-3-(trifluoromethyl)phenyl)acetamide] |  | 0.008 | 0.061 |  | 
COc1cc2nccc(Oc3ccc(NC(=O)Cc4ccc(Cl)c(C(F)(F)F)c4)c(F)c3)c2cc1OC [Example 24, N-(2-fluoro-4-((6,7-dimethoxyquinolin-4-yl)oxy)phenyl)-2-(4-chloro-3-(trifluoromethyl)phenyl)acetamide] |  | 0.002 | 0.024 |  | 
COc1cc2nccc(Oc3ccc(NC(=O)Cc4ccc(Cl)c(C(F)(F)F)c4)cc3F)c2cc1OC [Example 25, N-(3-fluoro-4-((6,7-dimethoxyquinolin-4-yl)oxy)phenyl)-2-(4-chloro-3-(trifluoromethyl)phenyl)acetamide] |  | 0.003 | 0.05 |  | 
COc1cc2nccc(Oc3ccc(NC(=O)Cc4ccc(Cl)c(C(F)(F)F)c4)c(C)c3)c2cc1OC [Example 26, N-(2-methyl-4-((6,7-dimethoxyquinolin-4-yl)oxy)phenyl)-2-(4-chloro-3-(trifluoromethyl)phenyl)acetamide] |  | 0.006 | 0.06 |  | 
COc1cc2nccc(Oc3ccc(NC(=O)Cc4ccc(Cl)c(C(F)(F)F)c4)cc3C)c2cc1OC [Example 27, N-(3-methyl-4-((6,7-dimethoxyquinolin-4-yl)oxy)phenyl)-2-(4-chloro-3-(trifluoromethyl)phenyl)acetamide] |  | 0.003 | 0.041 |  | 
COc1cc2nccc(Oc3ccc(NC(=O)NCCCN4CCOCC4)cc3)c2cc1OC [Example 28, 1-(4-((6,7-dimethoxyquinolin-4-yl)oxy)phenyl)-3-(3-morpholinopropyl)urea] |  | 0.012 |  |  | 
COc1cc2nccc(Oc3ccc(NC(=O)NCCCN4CCN(C)CC4)cc3)c2cc1OC [Example 29, 1-(4-((6,7-dimethoxyquinolin-4-yl)oxy)phenyl)-3-(3-(4-methylpiperazin-1-yl)propyl)urea] |  | 0.011 |  |  | 
COc1cc2nccc(Oc3ccc(NC(=O)Cc4ccc(Cl)c(C(F)(F)F)c4)cc3OC)c2cc1OC [Example 37, N-(3-methoxy-4-((6,7-dimethoxyquinolin-4-yl)oxy)phenyl)-2-(4-chloro-3-(trifluoromethyl)phenyl)acetamide] |  | 0.004 | 0.075 |  | 
